The values that follow come from patent publication US20240009190A1, “COMBINATION CANCER THERAPY USING CHK INHIBITOR” (SHANGHAI HUAYU BIOTECHNOLOGY CO., LTD., priority 2020, published 2024).

Data set [1] has as its system CT-26 WT cells. Description: CT-26 WT subcutaneous tumor model, Compound 6 with anti-m-PD-1 antibody (Example 1). Particulars: Day 27; Compound 6 35 mg/kg tail vein once per day; anti-m-PD-1 10 mg/kg IP once every five days, four times. The class given is in vivo, BALB/c female mice. The protocol: CT-26 WT cells were maintained at 37° C. in 5% CO2 in RPMI 1640 medium (10-040-CV, Corning cellgro) supplemented with 10% FBS (10270-106, GIBCO) and used before the 10th subculture.
At Day 0, 45 BALB/c female mice, 4-5 weeks old, were subcutaneously injected with about 200.0 μL of the CT-26 WT cell medium containing about 5×10^5 cells, respectively.
At Day 5, 32 tumor-bearing mice were randomly assigned to four groups according to their body weights, 8 mice per group. The remaining mice were subject to euthanasia. […]
(§1) Mice were observed every day for their physical conditions and activities, and mice body weight and tumor volume were measured every Tuesday, Thursday and Sunday. The tumor volume (V) was calculated as (length×width^2)/2.
(§2) At Day 27, mice were subject to euthanasia, from which tumors were collected, weighed and photographed. Mice body weights, tumor sizes and tumor weights were analyzed using the t-test in SPSS, and group differences were deemed statistically significant when the p-value was 0.05 or less.
Tumor growth inhibition (TGI) was calculated by the following two formulae. […]
Further, Zheng-Jun Jin's Q value was calculated using the formula Q=EA+B/(EA+EB−EA×EB) to assess the combined effect of the anti-PD-1 antibody and Compound 6, wherein EA+B, EA, and EB referred to the TGIs of the combination therapy, anti-PD-1 administration and Compound 6 administration, respectively. […]

Data set [2] is described as follows: Mice body weight and survival in CT-26 WT tumor model (Example 1). Type of data set: in vivo, BALB/c female mice. The settings on record: Day 27; Compound 6 35 mg/kg, anti-m-PD-1 10 mg/kg. As to the method:
as §1, §2

Data set [3] deals with CT-26 WT cells. Description: CT-26 WT subcutaneous tumor model, CHK inhibitors at lower dose with anti-m-PD-1 antibody (Example 2). The class given is in vivo, BALB/c female mice. Particulars: for Average tumor size: compounds 15 mg/kg tail vein once per day, anti-m-PD-1 10 mg/kg IP once every five days. As to the method: The anti-tumor effect of Compound 6 at a lower dose in combination with an anti-PD-1 antibody was studied in this Example. Further, three compounds obtained by structurally modifying Compound 6, i.e., Compound 6-1, Compound 6-2 and Compound 6-3, were tested alone or in combination with an anti-PD-1 antibody for their anti-tumor effects.
At Day 0, 105 BALB/c female mice, 4-5 weeks old, were subcutaneously injected with about 200.0 μL of the CT-26 WT cell medium containing about 5×10^5 cells, respectively.
At Day 5, 80 tumor-bearing mice were randomly assigned to ten groups according to their body weights, 8 mice per group. The remaining mice were subject to euthanasia.
The ten groups of animals were administered with an anti-m-PD-1 antibody (BE0146, BioXcell) in PBS (21-040-CVR, BioXcell) at 1.0 mg/mL, Compound 6 in saline at 1.5 mg/mL, Compound 6-1 in saline at 1.5 mg/mL, Compound 6-2 in saline at 1.5 mg/mL, Compound 6-3 in saline at 1.5 mg/mL, the anti-m-PD-1 antibody+Compound 6, the anti-m-PD-1 antibody+Compound 6-1, the anti-m-PD-1 antibody+Compound 6-2, the anti-m-PD-1 antibody+Compound 6-3, and the control vehicle (saline), respectively, at doses shown in Table 3 below.
as §1
(§3) At Day 23, mice were subject to euthanasia, from which tumors were collected, weighed and photographed. Mice body weights, tumor sizes and tumor weights were analyzed using the t-test in SPSS, and group differences were deemed statistically significant when the p-value was 0.05 or less. Tumor weight based tumor growth inhibition (TGI) and Zheng-Jun Jin's Q value were calculated.

Data set [4] in a line: Mice body weight in CT-26 WT tumor model (Example 2). The class given is in vivo, BALB/c female mice. The settings on record: for Average body weight: compounds 15 mg/kg tail vein once per day, anti-m-PD-1 10 mg/kg IP once every five days. As to the method:
as §1, §3

Data set [5] relates to MC38 cells. The experiment in a line: MC38 tumor model in transgenic mice, Compound 6, anti-PD-1 antibody and gemcitabine (Example 5). The class given is in vivo, C57BL/6-Pdcd1^em(hPDCD1) Cd274^em1(hPD-L1)/Smoc mice. Particulars: Day 23; Compound 6 15 mg/kg IP QD × 14; GEM 20 mg/kg IV QW × 2; anti-PD-1 10 mg/kg IP Q5D × 3. The protocol:
MC38 cells were maintained at 37° C. in 5% CO2 in RPMI 1640 medium (10-040-CV, Corning cellgro) supplemented with 10% FBS (10270-106, GIBCO) and used before the 10th subculture.
Female C57BL/6-Pdcd1^em(hPDCD1) Cd274^em1(hPD-L1)/Smoc mice (Shanghai Model Organisms), 20-25 g, were subcutaneously injected with about 5×10^5 MC38 cells, respectively.
When tumors grew to 50-70 mm^3, these mice were randomly assigned to 8 groups, 8 mice per group, this day was at Day 9. From Day 9, the animals were administered with gemcitabine (GEM) in saline at 20 mg/mL, an anti-PD-1 antibody (Toripalimab, Shanghai Junshi Biosciences Co., Ltd. China) in saline at 40 mg/mL, Compound 6 in saline at 8 mg/mL, Compound 6+gemcitabine, gemcitabine+anti-PD-1, Compound 6+anti-PD-1, Compound 6+gemcitabine+anti-PD-1, and the control vehicle (5% GS), respectively, according to the dosing regimen shown in Table 11 below.
Mice were observed every day for their physical conditions and activities, and mice body weight and tumor volume were measured every other day. The tumor volume (V) was calculated as (length×width^2)/2.
Mice body weights, and tumor sizes were analyzed using the t-test in SPSS, and group differences were deemed statistically significant when the p-value was 0.05 or less.
Tumor growth inhibition (TGI) was calculated by the following formula. Tumor growth inhibition=(average tumor size in vehicle group-average tumor size in administration group)/average tumor size in vehicle group×100%
Zheng-Jun Jin's Q value was calculated as described above.

The test system of data set [6] is MC38 cells. Description: MC38 tumor model in mPD-1-/- mPD-L1-/- hPD-1+/+ hPD-L1+/+ transgenic mice (Example 3). The class given is in vivo, C57BL/6-Pdcd1^em1(hPDCD1) Cd274^em1(hPD-L1)/Smoc mice. The protocol:
MC38 cells were maintained at 37° C. in 5% CO2 in RPMI 1640 medium (10-040-CV, Corning cellgro) supplemented with 10% FBS (10270-106, GIBCO, Thermo Fisher Scientific), 100 U/ml penicillin and 100 U/ml streptomycin in 10-cm Petri dishes.
Female C57BL/6-Pdcd1^em1(hPDCD1) Cd274^em1(hPD-L1)/Smoc mice, 20-25 g (Shanghai Model Organisms), were subcutaneously injected with about 3×10^5 MC38 cells, respectively.
When tumors grew to 50-70 mm^3, these mice were randomly assigned to four groups, 8 mice per group, this day was designated as Day 0. From Day 0, the animals were administered with an anti-PD-1 antibody (Toripalimab, Shanghai Junshi Biosciences Co., Ltd. China) in saline at 40.0 mg/mL, an hIgG4 (Novoprotein, NovoPro Bioscience Inc.) in saline at 3.3 mg/mL, Compound 6 in saline at 8 mg/mL in combination with the anti-PD-1 antibody, and Compound 6 in combination with hIgG4, respectively, according to the dosing regimen shown in Table 8 above.
Mice were observed every day for their physical conditions and activities, and mice body weight and tumor volume were measured twice a week. The tumor volume (V) was calculated as (length×width^2)/2.
Mice in Group 1 and Group 2 were subjected to euthanasia at Day 14, and those from Group 3 and Group 4 on Day 21, from which tumors were collected and photographed. Mice body weights and tumor sizes were analyzed using the t-test in SPSS, and group differences were deemed statistically significant when the p-value was 0.05 or less. TGI and Zheng-Jun Jin's Q value were calculated.

Data set [7] relates to MC38 cells. The experiment in a line: MC38 tumor model in transgenic mice, lower dose of anti-PD-1 antibody (Example 4). Particulars: Compound 6 8 mg/kg IP QD × 14; anti-PD-1 or hIgG4 2.5 mg/kg IP BIW × 3. The class given is in vivo, C57BL/6-Pdcd1^em1(hPDCD1) Cd274^em1(hPD-L1)/Smoc mice. The protocol:
The test of Example 3 was repeated in the same transgenic mouse model using a lower dose of anti-PD-1 antibody, i.e., 2.5 mg/kg anti-PD-1, with some other minor modifications.
In particular, female C57BL/6-Pdcd1^em1(hPDCD1) Cd274^em1(hPD-L1)/Smoc mice (Shanghai Model Organisms), 5-7 weeks old, were subcutaneously injected with about 3×10^5 MC38 cells, respectively.
When tumors grew to 50-100 mm^3, these mice were randomly assigned to four groups, 8 mice per group, this day was designated as Day 0. From Day 0, the animals were administered with an anti-PD-1 antibody (Toripalimab, Shanghai Junshi Biosciences Co., Ltd. China) in 5% GS (5% glucose solution) at 40 mg/mL, an hIgG4 (Novoprotein, NovoPro Bioscience Inc.) in 5% GS at 3.3 mg/mL, Compound 6 in 5% GS at 8 mg/mL in combination with the anti-PD-1 antibody, and Compound 6 in combination with hIgG4, respectively, according to the dosing regimen shown in Table 10 below.

The conditions of data set [8]: patients receiving various doses; pooled analysis of 14 phase I-III studies; cited from earlier work.
Setting [9] is: Day 23, compounds 15 mg/kg, anti-m-PD-1 10 mg/kg.

As to `NC(=O)c1nnc(N[C@H]2CCCNC2)c2cc(-c3cccc(F)c3)sc12` [Compound 6, 2-(3-fluorophenyl)-4-(3-piperidineamino)-thieno[2,3-d]pyridazine-7-carboxylic acid amide], the “TGI - tumor size” value in data set [1] is reported as 72.74%. Moreover, in data set [1], the “TGI - tumor weight” value is recorded as 77.53%. The “average mice weight, tumor weight deducted” value in data set [2] was 18.41 g; in data set [4] (setting [9]), 17.63 g. For the same compound, the Average tumor size in data set [3] (Day 9) is reported as 163.24 mm^3; in data set [3] (Day 10) it was 220.45 mm^3; in data set [3] (Day 12), 367.43 mm^3; in data set [3] (Day 14), 494.61 mm^3; in data set [3] (Day 16) it was 666.40 mm^3; in data set [3] (Day 18), 770.93 mm^3. In addition, the Average tumor size in data set [3] (Day 20) is 955.40 mm^3; in data set [3] (Day 22) it was 1094.31 mm^3; in data set [3] (Day 23) it was 1071.65 mm^3. In addition, the “Tumor weight based TGI” value in data set [3] (setting [9]) worked out at 52.30%. Moreover, in data set [3] (Day 23, group average of 8 mice), the “Tumor weight, Average” value was found to be 1.35 g. Besides, the “Tumor weight, Mouse no. 1” value in data set [3] (Day 23, individual mouse) is recorded as 0.95 g. Moreover, the “Tumor weight, Mouse no. 2” value in data set [3] (Day 23, individual mouse) came out at 0.28 g. Further, the “Tumor weight, Mouse no. 3” value in data set [3] (Day 23, individual mouse) is recorded as 0.59 g. The “Tumor weight, Mouse no. 4” value in data set [3] (Day 23, individual mouse) is reported as 2.43 g. Besides, the “Tumor weight, Mouse no. 5” value in data set [3] (Day 23, individual mouse) was 2.97 g. Further, the “Tumor weight, Mouse no. 6” value in data set [3] (Day 23, individual mouse) was 0.97 g. In addition, in data set [3] (Day 23, individual mouse), the “Tumor weight, Mouse no. 7” value is on record as 2.04 g. Moreover, in data set [3] (Day 23, individual mouse), the “Tumor weight, Mouse no. 8” value was 0.57 g. Moreover, the Average body weight came to 16.39 g in data set [4] (Day 9); 16.85 g in data set [4] (Day 10); 16.87 g in data set [4] (Day 12); 17.03 g in data set [4] (Day 14); 17.88 g in data set [4] (Day 16); 17.89 g in data set [4] (Day 18). Also, the figures for the Average body weight in data set [4] (Day 20), in data set [4] (Day 22) and in data set [4] (Day 23) were 18.25 g, 18.37 g and 18.98 g, respectively. Moreover, the “TGI based on tumor sizes” value in data set [5] turned out to be 52.53%.
On to Toripalimab [anti-PD-1], for which the Average tumor size in data set [6] (Day 0 (day of grouping, start of dosing)) worked out at 59.1 ± 0.4 mm^3; in data set [6] (Day 14, Compound 6 8 mg/kg IP QD Day 0-13, anti-PD-1 or hIgG4 3 mg/kg IP Q2D), 792.1 ± 207.1 mm^3. Besides, the “TGI (%) on D14” value in data set [6] (Day 14, Compound 6 8 mg/kg IP QD, anti-PD-1 or hIgG4 3 mg/kg IP Q2D) is 58%. In addition, the TGI in data set [7] came to 46.95%. In data set [5], the “TGI based on tumor sizes” value turned out to be 17.05%.
In the case of ipilimumab, the “patients who experienced immune-related adverse effects” value in data set [8] was 64%.
